# Data as given in patent EP4653437A2 (Innovo Therapeutics Inc., priority 2023, dated 2024).
# Columns and labels:
# A549 cells = assay: Measurement of PGE2-increasing activity in A549 cells (IL-1β stimulated, PGE2 quantified in supernatant); type: cell-based; conditions: Homo sapiens, 24 h; concentration of 1 µM of each compound; IL-1β treated A549 cells; read-out: Increased PGE2 production in A549 cells
# Protocol: A549 cells were prepared at a cell number of 1 x 10^5/mL in F12K medium containing 10% FBS (Fetal Bovine Serum), and 2 x 10^4/200 µL was added to each well of a 96-well cell culture plate, and then cultured in an incubator with 5% CO2 at 37 °C for 24 hours. After the culture was complete and all F12K medium was removed, all wells were washed once with 100 µL of PBS, and treated with 160 µL of serum-free F12K medium. Then, 20 µL of IL-1β diluted 10-fold to a concentration of 1 ng/mL in serum-free F12K medium was treated to wells to be treated with IL-1β, and 20 µL of serum-free F12K medium was treated to wells not treated with IL-1β. For the wells to be treated with the compound, 20 µL of the compound dissolved in 100% DMSO was diluted to a concentration 10 times of the desired compound concentration in serum-free F12K medium so that the final DMSO concentration treated to the cells was 0.1%, and for the wells not to be treated with the compound, 20 µL of DMSO diluted in serum-free F12K medium so that the final DMSO concentration treated to the cells was 0.1% was treated. In order to confirm the increase or decrease in the secretion amount of PGE2 in the supernatant collected after culturing for 24 hours in an incubator with 5% CO2 at 37 °C, PGE2 was quantified using the Prostaglandin E2 Parameter (SKGE004B).
# human 15-PGDH = target: T1, human 15-PGDH (Homo sapiens, UniProt P15428); assay: Evaluation of 15-PGDH inhibitory activity (fluorescence enzyme assay, NAD+/PGE2); type: biochemical; conditions: human 15-PGDH enzyme, fluorescence Vmax
# T1 construct: purchased R&D System 5660-DH
# T1 sequence (P15428 1-266): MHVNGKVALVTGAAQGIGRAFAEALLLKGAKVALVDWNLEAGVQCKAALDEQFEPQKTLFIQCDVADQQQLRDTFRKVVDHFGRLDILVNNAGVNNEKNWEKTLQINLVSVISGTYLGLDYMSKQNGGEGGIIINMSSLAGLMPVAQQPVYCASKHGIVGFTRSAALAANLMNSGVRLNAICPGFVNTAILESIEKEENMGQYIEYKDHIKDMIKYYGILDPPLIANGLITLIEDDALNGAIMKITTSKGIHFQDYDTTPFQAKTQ
# Protocol: 15-PGDH inhibition activity of Example compounds was measured as follows. 6.7 ng of human 15-PGDH (R&D System# 5660-DH) enzyme (10 µL) was added to a black 96 well plate, 60 µL of buffer (50 mM Tris-HCl, pH 7.5, 0.01% Tween 20) was added, and 10 µL of 200 µM β-Nicotinamide adenine dinucleotide sodium salt (Sigma, Cat# N0632-5G) was added. 10 µL of (10x) compound solution in DMSO was added and reacted for 10 minutes at room temperature.
Compound,IC50 (human 15-PGDH) [nM],fold induction at 1 µM (A549 cells)
"O=C(O)c1ccc(-c2cccc3c(C(=O)N4CCCCC4)cnn23)cc1 [Example 10, 4-(3-(piperidine-1-carbonyl)pyrazolo[1,5-a]pyridin-7-yl)benzoic acid]",≤ 100,< 1.5
"CN(C)CC(=O)Nc1cncc(-c2cccc3c(C(=O)N4CCCCC4)cnn23)c1 [Example 196, 2-(dimethylamino)-N-(5-(3-(piperidine-1-carbonyl)pyrazolo[1,5-a]pyridin-7-yl)pyridin-3-yl)acetamide]",≤ 100,> 1.5
"O=C(Cc1cccnc1)Nc1cncc(-c2cccc3c(C(=O)N4CCCCC4)cnn23)c1 [Example 327, N-(5-(3-(piperidine-1-carbonyl)pyrazolo[1,5-a]pyridin-7-yl)pyridin-3-yl)-2-(pyridin-3-yl)acetamide]",≤ 100,> 1.5
"Nc1cccc(-c2cccc3c(C(=O)N4CCCCC4)cnn23)c1 [Example 7, (7-(3-aminophenyl)pyrazolo[1,5-a]pyridin-3-yl)(piperidin-1-yl)methanone]",≤ 100,> 1.5
"O=C(c1cnn2c(NCCc3ccc(Cl)cc3)cccc12)N1CCCCC1 [Example 242, [7-[2-(4-chlorophenyl)ethylamino]pyrazolo[1,5-a]pyridin-3-yl]-(1-piperidyl)methanone]",≤ 100,< 1.5
"O=C1NCCc2ccc(-c3cccc4c(C(=O)N5CCC(F)CC5)cnn34)cc21 [Example 154, 7-(3-(4-fluoropiperidine-1-carbonyl)pyrazolo[1,5-a]pyridin-7-yl)-3,4-dihydroisoquinolin-1(2H)-one]",≤ 100,> 1.5
"CC(C)N1CCN(C(=O)c2cncc(-c3cccc4c(C(=O)N5CCCCC5)cnn34)c2)CC1 [Example 50, (4-isopropylpiperazin-1-yl)(5-(3-(piperidine-1-carbonyl)pyrazolo[1,5-a]pyridin-7-yl)pyridin-3-yl)methanone]",≤ 100,> 1.5
"O=C(c1cnn2c(-c3ccc4c(=O)[nH]ccc4c3)cccc12)N1CCCCC1 [Example 138, 6-(3-(piperidine-1-carbonyl)pyrazolo[1,5-a]pyridin-7-yl)isoquinolin-1(2H)-one]",≤ 100,> 1.5
"Cn1cnc(Nc2cccc3c(C(=O)N4CCCCC4)cnn23)cc1=O [Example 236, 3-methyl-6-[[3-(piperidine-1-carbonyl)pyrazolo[1,5-a]pyridin-7-yl]amino]pyrimidin-4-one]",≤ 100,> 1.5
"O=C(c1cnn2c(-c3cnc(Cl)nc3)cccc12)N1CCCCC1 [Example 267, (7-(2-chloropyrimidin-5-yl)pyrazolo[1,5-a]pyridin-3-yl)(piperidin-1-yl)methanone]",≤ 100,> 1.5
"O=C(c1cncc(-c2cccc3c(C(=O)N4CCCCC4)cnn23)c1)N1CC(O)C1 [Example 42, (3-hydroxyazetidin-1-yl)(5-(3-(piperidine-1-carbonyl)pyrazolo[1,5-a]pyridin-7-yl)pyridin-3-yl)methanone]",≤ 100,> 1.5
"O=C(c1cnn2c(-c3ccnc(Cl)c3)cccc12)N1CCCCC1 [Example 8, (7-(2-chloropyridin-4-yl)pyrazolo[1,5-a]pyridin-3-yl)(piperidin-1-yl)methanone]",≤ 100,> 1.5
"O=C(Nc1ccc(-c2cccc3c(C(=O)N4CCCCC4)cnn23)cc1)C1CCCCC1 [Example 102, N-(4-(3-(piperidine-1-carbonyl)pyrazolo[1,5-a]pyridin-7-yl)phenyl)cyclohexanecarboxamide]",≤ 100,< 1.5
"Cc1nc(-c2ccc(-c3cccc4c(C(=O)N5CCCCC5)cnn34)cc2F)no1 [Example 303, [7-[3-fluoro-4-(5-methyl-1,2,4-oxadiazol-3-yl)phenyl]pyrazolo[1,5-a]pyridin-3-yl]-(1-piperidyl)methanone]",≤ 100,> 1.5

# Further lines, with some results ahead:
IC50 (human 15-PGDH) [nM],Compound,fold induction at 1 µM (A549 cells)
≤ 100,"O=C(c1cnn2c(-c3cnc(-c4nnco4)c(F)c3)cccc12)N1CCCCC1 [Example 380, [7-[5-fluoro-6-(1,3,4-oxadiazol-2-yl)-3-pyridyl]pyrazolo[1,5-a]pyridin-3-yl]-(1-piperidyl)methanone]",> 1.5
≤ 100,"Nc1cnn(-c2ccc(-c3cccc4c(C(=O)N5CCCCC5)cnn34)cn2)c1 [Example 344, (7-(6-(4-amino-1H-pyrazol-1-yl)pyridin-3-yl)pyrazolo[1,5-a]pyridin-3-yl)(piperidin-1-yl)methanone]",> 1.5
≤ 100,"O=C(Nc1ccnnc1)c1cncc(-c2cccc3c(C(=O)N4CCCCC4)cnn23)c1 [Example 56, 5-(3-(piperidine-1-carbonyl)pyrazolo[1,5-a]pyridin-7-yl)-N-(pyridazin-4-yl)nicotinamide]",> 1.5
≤ 100,"N#Cc1ncc(-c2ccc(-c3cccc4c(C(=O)N5CCCCC5)cnn34)cc2)cn1 [Example 305, 5-[4-[3-(piperidine-1-carbonyl)pyrazolo[1,5-a]pyridin-7-yl]phenyl]pyrimidine-2-carbonitrile]",> 1.5
≤ 100,"Cc1nnc(-c2ccc(-c3cccc4c(C(=O)N5CCCCC5)cnn34)cn2)o1 [Example 364, [7-[6-(5-methyl-1,3,4-oxadiazol-2-yl)-3-pyridyl]pyrazolo[1,5-a]pyridin-3-yl]-(1-piperidyl)methanone]",> 1.5
≤ 100,"N#CCNC(=O)c1ccc(-c2cccc3c(C(=O)N4CCCCC4)cnn23)cc1 [Example 70, N-(cyanomethyl)-4-(3-(piperidine-1-carbonyl)pyrazolo[1,5-a]pyridin-7-yl)benzamide]",> 1.5
≤ 100,"COCCC(=O)Nc1ccc(-c2cccc3c(C(=O)N4CCCCC4)cnn23)cc1 [Example 98, 3-methoxy-N-(4-(3-(piperidine-1-carbonyl)pyrazolo[1,5-a]pyridin-7-yl)phenyl)propanamide]",> 1.5
≤ 100,"O=C(Nc1cccc(-c2cccc3c(C(=O)N4CCCCC4)cnn23)c1)c1cccnc1 [Example 95, N-(3-(3-(piperidine-1-carbonyl)pyrazolo[1,5-a]pyridin-7-yl)phenyl)nicotinamide]",> 1.5
≤ 100,"O=C1NCc2ccc(-c3cccc4c(C(=O)N5CC=CCC5)cnn34)cc21 [Example 401, 6-(3-(1,2,3,6-tetrahydropyridine-1-carbonyl)pyrazolo[1,5-a]pyridin-7-yl)isoindolin-1-one]",> 1.5
≤ 100,"Nc1noc2ccc(-c3cccc4c(C(=O)N5CCCCC5)cnn34)cc12 [Example 259, [7-(3-amino-1,2-benzoxazol-5-yl)pyrazolo[1,5-a]pyridin-3-yl]-(1-piperidyl)methanone]",> 1.5
≤ 100,"COCCNC(=O)c1ccc(-c2cccc3c(C(=O)N4CCCCC4)cnn23)cn1 [Example 78, N-(2-methoxyethyl)-5-(3-(piperidine-1-carbonyl)pyrazolo[1,5-a]pyridin-7-yl)picolinamide]",> 1.5
≤ 100,"O=C(c1cnn2c(-c3ccc(N4CCC5(CCC5)CC4)nc3)cccc12)N1CCCCC1 [Example 222, (7-(6-(7-azaspiro[3.5]nonan-7-yl)pyridin-3-yl)pyrazolo[1,5-a]pyridin-3-yl)(piperidin-1-yl)methanone]",> 1.5
≤ 100,"O=C(c1cnn2c(-c3cnc(-c4n[nH]c(=O)o4)c(F)c3)cccc12)N1CCCCC1 [Example 373, 5-[3-fluoro-5-[3-(piperidine-1-carbonyl)pyrazolo[1,5-a]pyridin-7-yl]-2-pyridyl]-3H-1,3,4-oxadiazol-2-one]",> 1.5
≤ 100,"O=C(c1cnn2c(-c3ccc(N4CC(O)C4)nc3)cccc12)N1CCCCC1 [Example 210, (7-(6-(3-hydroxyazetidin-1-yl)pyridin-3-yl)pyrazolo[1,5-a]pyridin-3-yl)(piperidin-1-yl)methanone]",> 1.5
